According to patent US20120121591A1 (priority 2009, published 2012):
Read-outs that look alike come from different tables or passages of the source.

How the values were obtained:
Assay type in all cases: cell-based
[1] = test system: IFN-g secretion from T cells in human whole blood
hKv1.3 = hKv1.3 (Homo sapiens, UniProt P22001); assay: cell-based; conditions: Kv1.3 (IWQ) IC50 (nM, Avg)
[2] = test system: IL-2 secretion from T cells in human whole blood; conditions: read-out: WB (IL-2) IC50 (nM, Avg)
[3] = read-out: WB (IFNg) IC50 (nM, Avg)

Sequence of hKv1.3 (P22001 whole entry): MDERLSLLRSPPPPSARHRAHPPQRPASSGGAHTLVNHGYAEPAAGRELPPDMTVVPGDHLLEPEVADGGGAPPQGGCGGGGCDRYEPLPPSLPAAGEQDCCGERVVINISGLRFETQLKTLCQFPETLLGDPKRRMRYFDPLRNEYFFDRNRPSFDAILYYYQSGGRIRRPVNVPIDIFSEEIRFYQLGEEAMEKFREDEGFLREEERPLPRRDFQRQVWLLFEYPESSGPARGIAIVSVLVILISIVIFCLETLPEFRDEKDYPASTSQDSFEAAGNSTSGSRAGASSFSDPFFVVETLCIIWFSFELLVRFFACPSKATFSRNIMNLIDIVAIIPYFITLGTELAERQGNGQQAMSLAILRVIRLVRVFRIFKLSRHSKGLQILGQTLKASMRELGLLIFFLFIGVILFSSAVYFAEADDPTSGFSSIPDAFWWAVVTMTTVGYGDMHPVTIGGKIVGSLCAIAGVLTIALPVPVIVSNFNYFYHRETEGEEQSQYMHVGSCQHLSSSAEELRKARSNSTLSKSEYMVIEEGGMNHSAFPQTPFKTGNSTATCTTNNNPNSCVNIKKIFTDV

Structure (SMILES) | IC50 [1, 3] [nM] | IC50 (hKv1.3) [nM] | IC50 [2] [nM] | IC50 ([1]; read-out: WB (IFNg) IC5- (nM, Avg)) [nM]
CCCC[C@@H]1NC(=O)[C@H](CO)NC(=O)[C@H](Cc2c[nH]cn2)NC(=O)[C@H](CCC(=O)O)NC(=O)[C@@H]2CSSC[C@@H]3NC(=O)[C@H]([C@@H](C)O)NC(=O)[C@H](CCCNC(=N)N)NC(=O)[C@H](CCCNC(=N)N)NC(=O)[C@H](CSSC[C@H](NC(=O)[C@H](CCCNC(=N)N)NC(=O)[C@H](CO)NC(=O)[C@H](CCCCN)NC(=O)[C@@H]4CCCN4C(=O)[C@H]([C@@H](C)CC)NC(=O)[C@H]([C@@H](C)O)NC(=O)[C@H](CC(=O)O)NC(=O)[C@H]([C@@H](C)CC)NC(=O)[C@@H](NC(=O)[C@H](CO)NC(=O)[C@@H](N)CCCNC(=N)N)CSSC[C@@H](C(N)=O)NC(=O)[C@H]([C@@H](C)O)NC(=O)CNC3=O)C(=O)N[C@@H]([C@@H](C)O)C(=O)N[C@@H](C)C(=O)N[C@@H](Cc3ccccc3)C(=O)N[C@@H](CCCCN)C(=O)N2)NC(=O)[C@H](Cc2ccccc2)NC(=O)[C@H](CO)NC(=O)[C@H](CC(C)C)NC(=O)[C@H](CCCNC(=N)N)NC(=O)[C@H](Cc2ccc(O)cc2)NC(=O)[C@H](CCCCN)NC1=O [[Glu18, Lys16, Nle21,Arg30]ShK-amide] | 0.969 | 0.226 | 1.22 | –
CCC[C@@H]1NC(=O)[C@H](CO)NC(=O)[C@H](Cc2c[nH]cn2)NC(=O)[C@H](CCCCN)NC(=O)[C@@H]2CSSC[C@@H]3NC(=O)[C@H]([C@@H](C)O)NC(=O)[C@H](CCCCN)NC(=O)[C@H](CCCNC(=N)N)NC(=O)[C@H](CSSC[C@H](NC(=O)[C@H](CCCNC(=N)N)NC(=O)[C@H](CO)NC(=O)[C@H](CCCCN)NC(=O)[C@@H]4CCCN4C(=O)[C@H]([C@@H](C)CC)NC(=O)[C@H]([C@@H](C)O)NC(=O)[C@H](CC(=O)O)NC(=O)[C@H]([C@@H](C)CC)NC(=O)[C@@H](NC(=O)[C@H](CO)NC(=O)[C@@H](N)CCCNC(=N)N)CSSC[C@@H](C(=O)N[C@@H](CCC(=O)O)C(N)=O)NC(=O)[C@H]([C@@H](C)O)NC(=O)CNC3=O)C(=O)N[C@@H]([C@@H](C)O)C(=O)N[C@@H](C)C(=O)N[C@@H](Cc3ccccc3)C(=O)N[C@@H](CCCCN)C(=O)N2)NC(=O)[C@H](Cc2ccccc2)NC(=O)[C@H](CO)NC(=O)[C@H](CC(C)C)NC(=O)[C@H](CCCNC(=N)N)NC(=O)[C@H](Cc2ccc(O)cc2)NC(=O)[C@H](CCCCN)NC1=O [[Lys16, Nva21]ShK-Glu-amide] | 0.353 | 0.21 | 0.218 | –
CCCC[C@@H]1NC(=O)[C@H](CO)NC(=O)[C@H](Cc2c[nH]cn2)NC(=O)[C@H](CCCCN)NC(=O)[C@@H]2CSSC[C@@H]3NC(=O)[C@H]([C@@H](C)O)NC(=O)[C@H](CCCCN)NC(=O)[C@H](CCCNC(=N)N)NC(=O)[C@H](CSSC[C@H](NC(=O)[C@H](CCCNC(=N)N)NC(=O)[C@H](CO)NC(=O)[C@H](CCCCN)NC(=O)[C@@H]4CCCN4C(=O)[C@H]([C@@H](C)CC)NC(=O)[C@H]([C@@H](C)O)NC(=O)[C@H](CC(=O)O)NC(=O)[C@H]([C@@H](C)CC)NC(=O)[C@@H](NC(=O)[C@H](CO)NC(=O)[C@@H](N)CCCNC(=N)N)CSSC[C@@H](C(N)=O)NC(=O)[C@H]([C@@H](C)O)NC(=O)CNC3=O)C(=O)N[C@@H]([C@@H](C)O)C(=O)N[C@@H](C)C(=O)N[C@@H](Cc3ccccc3)C(=O)N[C@@H](Cc3c[nH]cn3)C(=O)N2)NC(=O)[C@H](Cc2ccccc2)NC(=O)[C@H](CO)NC(=O)[C@H](CC(C)C)NC(=O)[C@H](CCCNC(=N)N)NC(=O)[C@H](Cc2ccc(O)cc2)NC(=O)[C@H](CCCCN)NC1=O [[His, Nle21]ShK-amide] | 0.148 | 0.139 | 0.24 | –
CC[C@H](C)[C@@H]1NC(=O)[C@@H](NC(=O)[C@H](CO)NC(=O)[C@@H](N)CCCNC(=N)N)CSSC[C@@H](C(=O)O)NC(=O)[C@H]([C@@H](C)O)NC(=O)CNC(=O)[C@@H]2CSSC[C@@H]3NC(=O)[C@H](CCCCN)NC(=O)[C@H](C)NC(=O)[C@H](C)NC(=O)[C@H]([C@@H](C)O)NC(=O)[C@H](CSSC[C@H](NC(=O)[C@H](Cc4ccccc4)NC(=O)[C@H](CO)NC(=O)[C@H](CC(C)C)NC(=O)[C@H](CCCNC(=N)N)NC(=O)[C@H](Cc4ccc(O)cc4)NC(=O)[C@H](CCCCN)NC(=O)[C@H](CCSC)NC(=O)[C@H](CO)NC(=O)[C@H](Cc4c[nH]cn4)NC(=O)[C@H](CCCCN)NC3=O)C(=O)N[C@@H](CCCNC(=N)N)C(=O)N[C@@H](CCCCN)C(=O)N[C@@H]([C@@H](C)O)C(=O)N2)NC(=O)[C@H](CCCNC(=N)N)NC(=O)[C@H](CO)NC(=O)[C@H](CCCCN)NC(=O)[C@@H]2CCCN2C(=O)[C@H]([C@@H](C)CC)NC(=O)[C@H]([C@@H](C)O)NC(=O)[C@H](CC(=O)O)NC1=O [[Ala15, Lys16]ShK] | 0.052 | 0.96 | 0.057 | –
CC[C@H](C)[C@@H]1NC(=O)[C@@H](NC(=O)[C@H](CO)NC(=O)[C@@H](N)CCCNC(=N)N)CSSC[C@@H](C(N)=O)NC(=O)[C@H]([C@@H](C)O)NC(=O)CNC(=O)[C@@H]2CSSC[C@@H]3NC(=O)[C@H](CCCCN)NC(=O)[C@H](Cc4ccccc4)NC(=O)[C@H](C)NC(=O)[C@H]([C@@H](C)O)NC(=O)[C@H](CSSC[C@H](NC(=O)[C@H](Cc4ccccc4)NC(=O)[C@H](CO)NC(=O)[C@H](CC(C)C)NC(=O)[C@H](CCCNC(=N)N)NC(=O)[C@H](Cc4ccc(O)cc4)NC(=O)[C@H](CCCCN)NC(=O)[C@H](C(C)C)NC(=O)[C@H](CO)NC(=O)[C@H](Cc4c[nH]cn4)NC(=O)[C@H](CCCCN)NC3=O)C(=O)N[C@@H](CCCNC(=N)N)C(=O)N[C@@H](CCCCN)C(=O)N[C@@H]([C@@H](C)O)C(=O)N2)NC(=O)[C@H](CCCNC(=N)N)NC(=O)[C@H](CO)NC(=O)[C@H](CCCCN)NC(=O)[C@@H]2CCCN2C(=O)[C@H]([C@@H](C)CC)NC(=O)[C@H]([C@@H](C)O)NC(=O)[C@H](CC(=O)O)NC1=O [[Lys16, VaI21]ShK-amide] | 6.65 | 0.344 | 4.8 | –
CC[C@H](C)[C@@H]1NC(=O)[C@@H](NC(=O)[C@H](CO)NC(=O)[C@@H](N)CCCNC(=N)N)CSSC[C@@H](C(=O)O)NC(=O)[C@H]([C@@H](C)O)NC(=O)CNC(=O)[C@@H]2CSSC[C@@H]3NC(=O)[C@H](CCC(=O)O)NC(=O)[C@H](Cc4ccccc4)NC(=O)[C@H](C)NC(=O)[C@H]([C@@H](C)O)NC(=O)[C@H](CSSC[C@H](NC(=O)[C@H](Cc4ccccc4)NC(=O)[C@H](CO)NC(=O)[C@H](CC(C)C)NC(=O)[C@H](CCCNC(=N)N)NC(=O)[C@H](Cc4ccc(O)cc4)NC(=O)[C@H](CCCCN)NC(=O)[C@H](CCSC)NC(=O)[C@H](CO)NC(=O)[C@H](Cc4c[nH]cn4)NC(=O)[C@H](CCCCN)NC3=O)C(=O)N[C@@H](CCCNC(=N)N)C(=O)N[C@@H](CCCCN)C(=O)N[C@@H]([C@@H](C)O)C(=O)N2)NC(=O)[C@H](CCCNC(=N)N)NC(=O)[C@H](CO)NC(=O)[C@H](CCCCN)NC(=O)[C@@H]2CCCN2C(=O)[C@H]([C@@H](C)CC)NC(=O)[C@H]([C@@H](C)O)NC(=O)[C@H](CC(=O)O)NC1=O [[Glu16]ShK] | – | 0.206 | 0.351 | 0.373
